The values that follow come from patent US20030232860A1, “Medicine comprising dicyanopyridine derivative” (priority 2000, published 2003).

The subject of series [1] is rat's removed bladder specimen. Kind of series: Inhibition of the contraction of rat's removed bladder specimen (15 mM K+-induced contraction, organ bath). To be noted: SD male rat bladder strips, dose giving 50% inhibition of contraction area. The text has this:
Since the inhibitory action is blocked by a known maxi-K channel blocker charybdotoxin or iberiotoxin, it is confirmed that the effect of the compounds of the invention is based on the maxi-K channel opening effect. Thus, the pharmacological effect of the compounds of the invention was confirmed according to the following method.
<Inhibitory Effect in Construction of the Rat's Removed Bladder Specimen>
In this experiment, SD-family male rats (9-13 weeks of age) were used. The rats were killed by bleeding under ether anesthesia, and the bladders were removed. The removed bladders were immediately washed in a Kiebs-Henseleit solution (NaCl 118.4, KCl 4.7, KH2PO4 1.2, MgSO4 1.2, CaCl2 2.5, NaHCO3 25.0, glucose 11.1 [mM], aeration with 95% O2/5% CO2 mixed gas) kept at 37° C., and prepared into rectangular specimens of about 10 mm long and about 2 mm width on a Petri dish filled with the Klebs-Henseleit solution. The respective specimens were ligated at the both ends with a cotton string via a wire hook, and the one end was fixed to an FD pick-up and the other hung down vertically in an organ bath filled with the Klebs-Henseleit solution. After completion of the operation, 1.0 g of static tensile stress was given to the respective slices, which were then allowed to stand for 1.5-2 hours to stabilize. Then, a KCl solution was added to the organ bath so that the final K^+ ion concentration become 15 mM to induce the contraction. Thereafter, the specimens were further allowed to stand for about 1-2 hours to stabilize, and the test was started. The contraction of the smooth muscle was measured isometrically through the FD pick-up, and the output signal was amplified through a strain stress amplifier to continuously record a chart on a pen recorder. At the same time, the respective contraction wave forms to be analyzed were recorded on a personal computer as magnetic data through an analogue/digital signal converter, and the under-area of the contraction was calculated by analytical software. The contraction 5 minutes immediately after the start of the test was regarded as the value before administration of the drug to be tested (100% reference value). The drug to be tested was added into the bath at intervals of 30 minutes, and the contraction for 5 minutes, respectively 25 minutes after the administration, was analyzed. The drug to be tested was administered at a common ratio of 3 or 10 accumulatively. The effect of the drug to be tested was represented by the dose by which 50% inhibition was attained to the value before the administration (100% reference value). Additionally, the wave form of contraction at the highest dose of the drug was recorded, and then a maxi-K channel selective blocker, charybdotoxin or iberiotoxin, was administered so that the final concentration in the organ bath became 100 nM. Thus, the effect of the drug was observed whether it was blocked or not.

The subject of series [2] is rhythmic bladder contraction in rats under urethane anesthesia. Put plainly: Rhythmic contraction of the bladder in rats under urethane anesthesia. Format: in vivo, rat. To be noted: urethane-anesthetized SD female rats, i.d.; for inhibition in vivo at 10 mg/kg: Rattus norvegicus, intraduodenal, up to 2 hours, read-out: Inhibition of frequency of the bladder contraction max % inhibition; for Frequency of Bladder Contraction Retention time of 50% Inhibition: 10 mg/kg. The text has this:
<Effect on the Rhythmic Contraction of the Bladder in Rats Under Urethane Anesthesia>
SD-Family female rats (about 300 g) were used. A catheter was inserted into the bladder through the external urethral orifice under urethane anesthesia and spontaneous breathing. The other end was connected to a pressure transducer and an infusion pump through a three-way cock. On the other hand, another catheter for measuring blood pressure was inserted into the right common carotid artery. Physiological saline warmed at about 38° C. was injected in the bladder at a rate of 4.2 ml/hr until rhythmical bladder contraction was induced. Change of the internal pressure in the bladder was continuously recorded on a recorder. After the rhythmical bladder contraction was stabilized, a test compound suspended in 0.5% methylcellulose aqueous solution was administered through a catheter which had been attached to the duodenum. Thus, frequency of the bladder contraction (every 10 minutes), force of bladder contraction and average blood pressure were observed as evaluation items up to 2 hours after administration of the test compound.

Series [3] relates to murine removed bladder smooth muscle. To be noted: cited from earlier work.
Series [4] has as its system rhythmic vesical contraction in an anesthetized rat. To be noted: cited from earlier work.

Structures can show the parent of a compound that is named as a salt.

In the case of `COc1nc(NC(C)=O)c(C#N)c(-c2ccccc2F)c1C#N` [Example 58, N-[3,5-dicyano-4-(2-fluorophenyl)-6-methoxypyridin-2-yl]acetamide], the melting point (in general, the temperature of the solid-liquid transition) lay within 192 to 193 °C. Besides, half-maximal inhibition in series [1] (IC50) required 1400 nM. Also, in series [2], the inhibition in vivo at 10 mg/kg came to 93% and the “Frequency of Bladder Contraction Retention time of 50% Inhibition” value (shortened to “Frequency … of 50% Inhibition”) was 46 min.
In the same order, the values of `N#Cc1c(N)nc(OCC(F)F)c(C#N)c1-c1ccccc1F` [Example 12, 2-amino-6-(2,2-difluoroethoxy)-4-(2-fluorophenyl)pyridine-3,5-dicarbonitrile] are 219 to 220 °C, 410 nM, 77% and 31 min.
`COc1nc(N)c(C#N)c(CC2CCCCC2)c1C#N` [Example 150, 2-amino-4-cyclohexylmethyl-6-methoxypyridine-3,5-dicarbonitrile]: the melting point lay within 139 to 140 °C. Also, the IC50 (as a rule, the midpoint of a concentration-inhibition curve) in series [1] turned out to be 1300 nM. For the same compound, in series [2], the inhibition in vivo at 10 mg/kg stood at 81% and the “Frequency … of 50% Inhibition” value came out at 30 min.
Compound `N#Cc1c(N)nc(OCCOC(=O)[C@@H](N)Cc2ccccc2)c(C#N)c1-c1ccccc1` [Example 15, 2-[(2-amino-3,5-dicyano-4-phenylpyridin-6-yl)oxy]ethyl (S)-2-amino-3-phenylpropanoate monohydrochloride monohydrate] yielded an IC50 in series [1] of 2800 nM. Moreover, in series [2], the inhibition in vivo at 10 mg/kg is 89% and the “Frequency … of 50% Inhibition” value was 36 min.
In turn, `COc1nc(N)c(C#N)c(Cc2ccccc2)c1C#N` [Example 151, 2-amino-4-benzyl-6-methoxypyridine-3,5-dicarbonitrile] came in with a melting point of 215 to 216 °C. In addition, the IC50 in series [1] is 1000 nM. In series [2], the inhibition in vivo at 10 mg/kg was determined as 71% and the “Frequency … of 50% Inhibition” value amounted to 26 min.
For `COc1nc(N)c(C#N)c(-c2ccccc2F)c1C#N` [Example 3, 2-amino-6-methoxy-4-(2-fluorophenyl)pyridine-3,5-dicarbonitril], the melting point lay within 240 to 241 °C. Also, the IC50 in series [1] amounted to 230 nM. Further, in series [2], the inhibition in vivo at 10 mg/kg came to 97% and the “Frequency … of 50% Inhibition” value is given as 39 min.
In series [1], `COc1nc(N)c(C#N)c(-c2cccs2)c1C#N` [Example 1, 2-amino-6-methoxy-4-(2-thienyl)pyridine-3,5-dicarbo-nitrile] returned an IC50 of 150 nM.
Consider `C#CCOc1nc(N)c(C#N)c(-c2ccccc2F)c1C#N` [Example 11, 2-amino-4-(2-fluorophenyl)-6-(prop-2-yn-1-yloxy)pyridine-3,5-dicarbonitrile], for which the melting point was in the range of 205 to 206 °C. Besides, 410 nM corresponded to half-maximal inhibition in series [1] (IC50). In series [2], the inhibition in vivo at 10 mg/kg was 87% and the “Frequency … of 50% Inhibition” value amounted to 27 min.
On to `COc1nc(N)c(C#N)c(C2CCCCO2)c1C#N` (centres unmarked) [Example 6, 2-amino-4-(2-tetrahydropyranyl)-6-methoxypyridine-3,5-dicarbonitrile], for which the melting point lay within 134 to 135 °C. The same compound had an IC50 in series [1] of 1300 nM. In series [2], the inhibition in vivo at 10 mg/kg was 65% and the “Frequency … of 50% Inhibition” value worked out at 39 min.
As to `COc1nc(N)c(C#N)c(-c2ccc(N)cc2)c1C#N.Cl.O` [Example 20, 2-amino-(4-aminophenyl)-6-methoxypyridine-3,5-dicarbonitrile monohydrochloride monohydrate], in series [1], the IC50 turned out to be 110 nM. Further, in series [2], the inhibition in vivo at 10 mg/kg came out at 86% and the “Frequency … of 50% Inhibition” value is recorded as 40 min.
As to `Cc1c(-c2ccccc2F)[nH]c(N)c1C#N` [NS-8], half-maximal inhibition in series [1] (IC50) required 1100 nM. In addition, in series [3], the “Relaxant effect for the murine removed bladder smooth muscle” value is given as “exhibits a relaxant effect”. In addition, in series [4], the Rhythmic vesical contraction result is “makes rhythmic vesical contraction subsided”.
